By IC50 is commonly meant the midpoint of a concentration-inhibition curve. Low values mean greater potency in that assay, high ones weaker potency in that assay.

Common to all, as to assay type: functional, cell-based
In one assay the test system is B16-F10. Description: Cytotoxic activity against B16F10 mouse melanoma cells.
A further assay concerns DA-3 cell line. The experiment in a line: Cytotoxic activity against DA-3 mouse mammary adenocarcinoma cells.
The subject of another assay is HT-29. The experiment in a line: Cytotoxic activity against HT-29 human colon adenocarcinoma cells.
Assay [1] deals with KB. The experiment in a line: Cytotoxic activity against KBV vinblastine resistant KB cells. Conditions: Homo sapiens.
Assay [2] deals with KB. The experiment in a line: Cytotoxic activity against KB human nasopharyngeal carcinoma cells.

For `COc1ccc(C[C@H]2NC(=O)/C=C/C[C@@H](C(O)CCc3ccccc3)OC(=O)[C@H](CC(C)C)OC(=O)[C@H](C)CNC2=O)cc1` (stereo not given in full), the IC50 in the assay on B16-F10, in the assay with DA-3 cell line, with HT-29, in the assay with KB [1] and in the assay on KB [2] was over 10 nM throughout.

As for `COc1ccc(C[C@H]2NC(=O)/C=C/C[C@@H](C(=O)C#Cc3ccccc3)OC(=O)[C@H](CC(C)C)OC(=O)[C@@H](C)CNC2=O)cc1`, the IC50 with B16-F10, in the assay with DA-3 cell line, in the assay with HT-29, in the assay on KB [1] and with KB [2] was over 10 nM throughout.

As for `COc1ccc(C[C@H]2NC(=O)/C=C/C[C@@H](C(O)C#Cc3ccccc3)OC(=O)[C@H](CC(C)C)OC(=O)[C@@H](C)CNC2=O)cc1` (stereo not given in full), the IC50 in the assay with B16-F10, in the assay on DA-3 cell line, in the assay on HT-29, in the assay on KB [1] and in the assay on KB [2] was over 10 nM throughout.

As for `COc1ccc(C[C@H]2NC(=O)/C=C/C[C@@H]([C@@](C)(O)/C=C\c3ccccc3)OC(=O)[C@H](CC(C)C)OC(=O)CCNC2=O)cc1`, the IC50 with B16-F10, in the assay with DA-3 cell line, in the assay with HT-29, with KB [1] and in the assay with KB [2] was over 10 nM in each case.

Consider `COc1ccc(C[C@H]2NC(=O)/C=C/C[C@@H](CCCc3ccccc3)OC(=O)[C@H](CC(C)C)OC(=O)CCNC2=O)cc1Cl`, for which the IC50 in the assay with B16-F10, with DA-3 cell line, with HT-29, with KB [1] and in the assay with KB [2] was over 10 nM each time.

As to `COc1ccc(C[C@H]2NC(=O)/C=C/C[C@@H]([C@@H](C)/C=C/c3ccccc3)OC(=O)[C@H](CC(C)C)OC(=O)[C@H](C)CNC2=O)cc1`, the IC50 with B16-F10, in the assay on DA-3 cell line, in the assay with HT-29, in the assay on KB [1] and with KB [2] was over 10 nM in each case.

Take `COc1ccc(C[C@H]2NC(=O)/C=C/C[C@@H](CC#Cc3ccccc3)OC(=O)[C@H](CC(C)C)OC(=O)[C@@H](C)CNC2=O)cc1`: the IC50 in the assay on B16-F10, in the assay on DA-3 cell line, in the assay with HT-29, in the assay with KB [1] and in the assay on KB [2] was over 10 nM each time.

For `COc1ccc(C[C@H]2NC(=O)/C=C/C[C@@H](C(O)/C=C/c3ccccc3)OC(=O)[C@H](CC(C)C)OC(=O)[C@H](C)CNC2=O)cc1` (stereo not given in full), the IC50 in the assay with B16-F10, in the assay with DA-3 cell line, in the assay with HT-29, in the assay with KB [1] and in the assay on KB [2] was over 10 nM in each case.

As for `COc1ccc(C[C@H]2NC(=O)/C=C/C[C@@H]([C@H](C)[C@H]3O[C@@H]3c3ccccc3)OC(=O)[C@H](CC(C)C)OC(=O)[C@H](C)CNC2=O)cc1`, the IC50 is 0.3 nM in the assay with B16-F10; 0.2 nM in the assay with DA-3 cell line; 0.3 nM with HT-29; 0.8 nM with KB [1]; 0.3 nM in the assay on KB [2].

Consider `COc1ccc(C[C@H]2NC(=O)/C=C/C[C@@H]([C@@](C)(O)C#Cc3ccccc3)OC(=O)[C@H](CC(C)C)OC(=O)CCNC2=O)cc1`, for which the IC50 in the assay with B16-F10, in the assay with DA-3 cell line, with HT-29, in the assay with KB [1] and with KB [2] was over 10 nM throughout.

Take `COc1ccc(C[C@H]2NC(=O)/C=C/C[C@@H](C/C=C/c3ccccc3)OC(=O)[C@H](CC(C)C)OC(=O)[C@H](C)CNC2=O)cc1Cl`: the IC50 in the assay with B16-F10, with DA-3 cell line, in the assay on HT-29, with KB [1] and in the assay with KB [2] was over 10 nM throughout.

Regarding `COc1ccc(C[C@H]2NC(=O)/C=C/C[C@@H]([C@H](C)/C=C/c3ccccc3)OC(=O)[C@H](CC(C)C)OC(=O)[C@H](C)CNC2=O)cc1`, the IC50 in the assay with B16-F10, in the assay on DA-3 cell line, in the assay with HT-29, in the assay on KB [1] and in the assay on KB [2] was over 10 nM in each case.

Turning to `COc1ccc(C[C@H]2NC(=O)/C=C/C[C@@H](CCCc3ccccc3)OC(=O)[C@H](CC(C)C)OC(=O)CCNC2=O)cc1`, the IC50 in the assay with B16-F10, with DA-3 cell line, in the assay with HT-29, in the assay on KB [1] and in the assay on KB [2] was over 10 nM in each case.

`COc1ccc(C[C@H]2NC(=O)/C=C/C[C@@H](C(/C=C/c3ccccc3)OC(C)=O)OC(=O)[C@H](CC(C)C)OC(=O)[C@H](C)CNC2=O)cc1` (stereo not given in full): the IC50 in the assay with B16-F10, with DA-3 cell line, in the assay with HT-29, in the assay on KB [1] and with KB [2] was over 10 nM throughout.

As for `COc1ccc(C[C@H]2NC(=O)/C=C/C[C@@H](C(=O)CCc3ccccc3)OC(=O)[C@H](CC(C)C)OC(=O)CCNC2=O)cc1`, the IC50 in the assay on B16-F10, in the assay on DA-3 cell line, in the assay with HT-29, with KB [1] and in the assay on KB [2] was over 10 nM throughout.

Take `COc1ccc(C[C@H]2NC(=O)/C=C/C[C@@H](C(Br)C#Cc3ccccc3)OC(=O)[C@H](CC(C)C)OC(=O)[C@H](C)CNC2=O)cc1` (stereo not given in full): the IC50 in the assay on B16-F10, in the assay with DA-3 cell line, in the assay with HT-29, in the assay on KB [1] and with KB [2] was over 10 nM throughout.

As to `COc1ccc(C[C@H]2NC(=O)/C=C/C[C@@H](C/C=C/c3ccccc3)OC(=O)[C@H](CC(C)C)OC(=O)[C@H](C)CNC2=O)cc1`, the IC50 with B16-F10, in the assay on DA-3 cell line, in the assay on HT-29, with KB [1] and in the assay on KB [2] was over 10 nM each time.

Take `COc1ccc(C[C@H]2NC(=O)/C=C/C[C@@H](C(=O)/C=C/c3ccccc3)OC(=O)[C@H](CC(C)C)OC(=O)[C@H](C)CNC2=O)cc1Cl`: the IC50 in the assay with B16-F10, with DA-3 cell line, in the assay with HT-29, in the assay with KB [1] and in the assay on KB [2] was over 10 nM throughout.

In the case of `COc1ccc(C[C@H]2NC(=O)/C=C/C[C@@H](C(=O)C#Cc3ccccc3)OC(=O)[C@H](CC(C)C)OC(=O)[C@H](C)CNC2=O)cc1`, the IC50 with B16-F10, in the assay with DA-3 cell line, with HT-29, in the assay on KB [1] and with KB [2] was over 10 nM each time.

As to `COc1ccc(C[C@H]2NC(=O)/C=C/C[C@@H](C(O)/C=C/c3ccccc3)OC(=O)[C@H](CC(C)C)OC(=O)CCNC2=O)cc1` (stereo not given in full), the concentration for half-maximal inhibition (IC50) in the assay with B16-F10, with DA-3 cell line, with HT-29, in the assay with KB [1] and with KB [2] was over 10 nM in each case.

On to `COc1ccc(C[C@H]2NC(=O)/C=C/C[C@@H](C(=O)/C=C/c3ccccc3)OC(=O)[C@H](CC(C)C)OC(=O)[C@H](C)CNC2=O)cc1`, for which the IC50 with B16-F10, in the assay on DA-3 cell line, with HT-29, with KB [1] and with KB [2] was over 10 nM each time.

For `COc1ccc(C[C@H]2NC(=O)/C=C/C[C@@H](C(=O)/C=C\c3ccccc3)OC(=O)[C@H](CC(C)C)OC(=O)CCNC2=O)cc1`, the IC50 in the assay on B16-F10, in the assay with DA-3 cell line, in the assay with HT-29, in the assay with KB [1] and in the assay on KB [2] was over 10 nM each time.

Take `COc1ccc(C[C@H]2NC(=O)/C=C/C[C@@H](C(=O)C#Cc3ccccc3)OC(=O)[C@H](CC(C)C)OC(=O)CCNC2=O)cc1`: the IC50 in the assay on B16-F10, in the assay with DA-3 cell line, with HT-29, in the assay on KB [1] and in the assay on KB [2] was over 10 nM throughout.

`COc1ccc(C[C@H]2NC(=O)/C=C/C[C@@H](C(=O)/C=C/c3ccccc3)OC(=O)[C@H](CC(C)C)OC(=O)CCNC2=O)cc1`: the IC50 in the assay on B16-F10, with DA-3 cell line, in the assay with HT-29, in the assay with KB [1] and with KB [2] was over 10 nM each time.

For the compound `COc1ccc(C[C@H]2NC(=O)/C=C/C[C@@H](C(C#Cc3ccccc3)OS(C)(=O)=O)OC(=O)[C@H](CC(C)C)OC(=O)[C@@H](C)CNC2=O)cc1` (stereo not given in full), the IC50 in the assay with B16-F10, in the assay on DA-3 cell line, with HT-29, with KB [1] and in the assay with KB [2] was over 10 nM each time.

With `COc1ccc(C[C@H]2NC(=O)/C=C/C[C@@H](C(=O)[C@H]3O[C@@H]3c3ccccc3)OC(=O)[C@H](CC(C)C)OC(=O)[C@H](C)CNC2=O)cc1`, the IC50 in the assay with B16-F10, in the assay on DA-3 cell line, with HT-29, in the assay with KB [1] and with KB [2] was over 10 nM throughout.

Regarding `COc1ccc(C[C@H]2NC(=O)/C=C/C[C@@H](C[C@H]3O[C@@H]3c3ccccc3)OC(=O)[C@H](CC(C)C)OC(=O)[C@H](C)CNC2=O)cc1`, the IC50 in the assay with B16-F10 is over 10 nM; with DA-3 cell line, 3 nM; in the assay with HT-29, 4 nM; with KB [1], over 10 nM; in the assay on KB [2], 6 nM.

For `COc1ccc(C[C@H]2NC(=O)/C=C/C[C@@H]([C@@H](C)[C@H]3O[C@@H]3c3ccccc3)OC(=O)[C@H](CC(C)C)OC(=O)[C@H](C)CNC2=O)cc1`, the IC50 in the assay on B16-F10 is over 4 nM; with DA-3 cell line, over 10 nM; in the assay on HT-29, 3 nM; in the assay with KB [1], over 10 nM; with KB [2], over 10 nM.

As to `COc1ccc(C[C@H]2NC(=O)/C=C/C[C@@H](C(C#Cc3ccccc3)OS(C)(=O)=O)OC(=O)[C@H](CC(C)C)OC(=O)[C@H](C)CNC2=O)cc1` (stereo not given in full), the IC50 with B16-F10, in the assay on DA-3 cell line, with HT-29, in the assay on KB [1] and in the assay on KB [2] was over 10 nM throughout.

Take `COc1ccc(C[C@H]2NC(=O)/C=C/C[C@@H](C(O)CCc3ccccc3)OC(=O)[C@H](CC(C)C)OC(=O)CCNC2=O)cc1` (stereo not given in full): the IC50 in the assay with B16-F10, with DA-3 cell line, with HT-29, in the assay with KB [1] and with KB [2] was over 10 nM in each case.

For the origin of these results see ChEMBL document CHEMBL1128913, “Synthesis and in vitro cytotoxicity of cryptophycins and related analogs” (Bioorg Med Chem Lett, 1996).
